This note sets out measurements from patent US20220265646A1, “PIEZO AGONISTS FOR PREVENTING OR REVERTING ABNORMAL AMYLOID DEPOSITION” (ITÄ-SUOMEN YLIOPISTO, priority 2019, published 2022).

Test [1] relates to Balb-c mice subjected to pMCAo. The test can be described thus: Permanent middle cerebral artery occlusion (pMCAo) ischemic stroke model: MRI lesion size and adhesive removal test. The test is classed as in vivo, mouse. Conditions: 1.78 mg/kg i.v. As to the method: Permanent middle cerebral artery occlusion for modelling ischemic stroke and treatment with Yoda. Balb-c mice were subjected to permanent middle cerebral artery occlusion (pMCAo). The anaesthesia was induced by 5% isoflurane in 30% oxygen and 70% nitrogen as a carrier gas and maintained with 2% isoflurane during the surgical operation. The temperature was kept constant (37 ±1° C.) using the heating blanket connected to the rectal probe (Harvard apparatus, PanLab, Barcelona, Spain). The temporal muscle was detached from the scull and a hole (1 mm of diameter) was drilled to temporal bone. After removing the dura the exposed left MCA was lifted and occluded using a thermocoagulator (Aaron Medical Industries Inc., Clearwater, Fla., USA). […]
Lesion size measurement. The lesion volume was measured in vivo at 24 h and 72 h post ischemia by magnetic resonance imaging (MRI) using a vertical 9.4 T Oxford NMR 400 magnet (Oxford Instrument PLC, Abington, UK). […] Multislice T2-weighted images (repetition time 3000 ms, echo time 40 ms, matrix size 128×256, field of view 19.2×19.2 mm^2, slice thickness 0.8 mm and number of slices 12) were taken and the obtained images were analyzed with in-house made Aedes software under the Matlab environment (Math-works, Natick, Mass., USA).

Test [2] has as its system 5xFAD transgenic mice modeling Alzheimer's disease. As to the kind of experiment: 5xFAD transgenic mice, intraventricular cannula infusion, immunohistochemistry for Iba1 and Aβ (WO2). Conditions: 5xFAD mice, treated for 2 weeks. The test is classed as in vivo, mouse. The text has this: To evaluate the effect of microglial Piezo1 Rs mechanosensor in vivo the present inventors used 5-month-old transgenic SXFAD male mice (Jackson Laboratories, Bar Harbor, Me., US) which were randomly divided into 3 groups. 5xFAD mice express human APP and PSEN1 transgenes with a total of five AD-linked mutations: the Swedish (K670N/M671L), Florida (1716V), and London (V7171) mutations in APP, and the M146L and L286V mutations in Presenilin-1 (PSEN1). These widely used mice recapitulate many AD-related phenotypes and have a relatively early and aggressive presentation. Amyloid plaques, accompanied by gliosis, are seen in mice as young as two months of age. Amyloid pathology is more severe in females than in males. Neuron loss occurs in multiple brain regions, beginning at about 5 months in the areas with the most pronounced amyloidosis. Mice display a range of cognitive and motor deficits. The animals were implanted with the intraventricular cannulas. Briefly, surgical anesthesia was induced using 5% isoflurane and maintained with 1.8% isoflurane (in 30% 02/70% N20). The temperature of the animals was maintained at 37±0.5° C. using a thermostatically controlled heating blanket with a rectal probe (Pan Lab, Harvard Apparatus). After the skull was exposed a small hole approximately 1 mm in diameter was drilled into the left hemisphere of the skull using following coordinates: m/l (medial/lateral) +1.1 mm, a/p (anterior/posterior) −0.3 mm, d/v (dorsal/ventral) −2.0 mm. […]
Brain sample preparation and Immunohistochemistry. […] Next, Aβ deposits and microglial were detected. […] For quantification of Aβ and Iba1 immunoreactivities, the stained sections were imaged using 10× magnification in Zeiss Axio ImagerM.2 microscope equipped with Axiocam 506 mono CCD camera (Carl Zeiss, Oberkochen) running ZEN software (Carl Zeiss) for tailing and stitching of the images. Cortical and hippocampal Aβ and Iba1 immunoreactivities were quantified from 6 stained sections at 400 μm intervals per animal using MatLab code (MathWorks, MatLab 2017b). […]

The mark [3] stands for this setting: 0.05 μg/μl, 5 μl infusion once a day.

Each structure is given as a SMILES string.

`Clc1cccc(Cl)c1CSc1nnc(-c2cnccn2)s1` [Yoda1]: the “lesion size measured with MRI” value in test [1] (1 DPI and 3 DPI, versus vehicle) is “significantly smaller lesion size”. In addition, the “ability to sense adhesive patches post stroke (adhesive removal test)” value in test [1] (ischemic mice) is recorded as “no apparent deficits”. In test [2], the “microglial accumulation near the Aβ deposits” value is given as “enhanced microglial accumulation”. For the same compound, in test [2] (setting [3]), the “Iba1 immunoreactivity in cortex and hippocampus” value is “significantly increased”; the “extent of brain Aβ load in cortex and hippocampi (WO2 staining)” value is “significant reduction”.
